Assay results as given in publication PMC5391474, “Investigation of the Role of Protein Kinase D in Human Rhinovirus Replication” (Journal of Virology, 2017).

Experiments:
Assay in all cases: biochemical
Design in all cases: in vitro kinase selectivity panel, protein and lipid kinases, single concentration, ATP at Km
Settings in all cases: ATP at Km
cKit(D816H)(h) = target: T1, cKit(D816H)(h) (Homo sapiens, UniProt P10721, D816H)
T1 construct: gene KIT
Protocol: (§1) CRT0066101 was described previously ([48]) and was purchased for this study from Tocris, with a purity of 99.9%. CRT0066101 (XX-209) and compound XX-050 were synthesized as previously described ([68]). CRT0066051 (Y-095) was also synthesized as previously described ([69]). […] CRT0066101 can also be obtained in larger quantities from Ximbio. Inhibitors were tested in in vitro PKD kinase assays and cellular assays on PANC1 cells as previously described ([48]). The selectivity of the three PKD inhibitors was determined against a panel of protein and lipid kinases by Eurofins and the MRC PPU International Centre for Kinase Profiling (http://www.kinase-screen.mrc.ac.uk), respectively. Each inhibitor was tested at a single concentration of 1 μM and at an ATP concentration equivalent to the Km for each kinase. Having shown that HRV infection appears to activate PKD, we went on to explore the influence of chemical inhibitors of PKD on HRV replication. The compound CRT0066101 is a specific and potent PKD inhibitor that has been used in studies exploring its potential as an anticancer target ([48], [51]). This inhibitor has a 50% inhibitory concentration (IC50) of 1 nM against purified PKD in biochemical assays and a 50% effective concentration (EC50) of 1 μM in a cell-based assay (Table 1). We pretreated HeLa cells with increasing concentrations of the drug for 1 h followed by infection with HRV16. Viral replication was subsequently measured at 6 hpi by quantitative real-time PCR (qRT-PCR) (Fig. 2A) and by Western blotting using an antibody against the viral nonstructural protein 2C (Fig. 2B). […] Furthermore, we tested two novel and structurally different PKD inhibitors (CRT0066051 and XX-050) (Table 1) and confirmed that they too inhibited HRV 2C expression although with different potencies (Fig. 2D). Kinase selectivity profiling of all three PKD inhibitors was performed against a panel of protein and lipid kinases at a drug concentration of 1 μM and at an ATP concentration equivalent to the Km of each kinase (see Table S1 in the supplemental material). […] Since PKD is known to be involved in regulating the architecture of the Golgi apparatus, we confirmed the pharmacodynamic effect of these inhibitors by demon

CDK1/cyclinB(h) = CDK1/cyclinB(h) (Homo sapiens, UniProt P06493)
Protocol: as §1

ROCK-I(h) = target: T2, ROCK-I(h) (Homo sapiens, UniProt Q13464)
T2 construct: gene ROCK1
Protocol: as §1

PIK3CG / p85 (h) = target: T3, PIK3CG / p85 (h) (Homo sapiens, UniProt P48736)
T3 construct: p110gamma/p85 as printed
Protocol: as §1

EGFR(L858R)(h) = EGFR(L858R)(h) (Homo sapiens, UniProt P00533, L858R)
Protocol: as §1

Flt3(D835Y)(h) = Flt3(D835Y)(h) (Homo sapiens, UniProt P36888, D835Y)
Protocol: as §1

PKCα(h) = target: T4, PKCα(h) (Homo sapiens, UniProt P17252)
T4 construct: gene PRKCA
Protocol: as §1

EGFR(T790M)(h) = EGFR(T790M)(h) (Homo sapiens, UniProt P00533, T790M)
Protocol: as §1

MEK1(h) = target: T5, MEK1(h) (Homo sapiens, UniProt Q02750)
T5 construct: gene MAP2K1
Protocol: as §1

FGFR1(h) = FGFR1(h) (Homo sapiens, UniProt P11362)
Protocol: as §1

EphB4(h) = EphB4(h) (Homo sapiens, UniProt P54760)
Protocol: as §1

PKCγ(h) = target: T6, PKCγ(h) (Homo sapiens, UniProt P05129)
T6 construct: gene PRKCG
Protocol: as §1

EphA7(h) = EphA7(h) (Homo sapiens, UniProt Q15375)
Protocol: as §1

SPHK2 = SPHK2 (Homo sapiens, UniProt Q9NRA0)
Protocol: as §1

ZAP-70(h) = target: T7, ZAP-70(h) (Homo sapiens, UniProt P43403)
T7 construct: gene ZAP70
Protocol: as §1

PKD2(h) = target: T8, PKD2(h) (Homo sapiens, UniProt Q9BZL6)
T8 construct: gene PRKD2
Protocol: as §1

PIK3CB = PIK3CB (Homo sapiens, UniProt P42338)
Protocol: as §1

Sequence of FGFR1(h) (P11362 whole entry): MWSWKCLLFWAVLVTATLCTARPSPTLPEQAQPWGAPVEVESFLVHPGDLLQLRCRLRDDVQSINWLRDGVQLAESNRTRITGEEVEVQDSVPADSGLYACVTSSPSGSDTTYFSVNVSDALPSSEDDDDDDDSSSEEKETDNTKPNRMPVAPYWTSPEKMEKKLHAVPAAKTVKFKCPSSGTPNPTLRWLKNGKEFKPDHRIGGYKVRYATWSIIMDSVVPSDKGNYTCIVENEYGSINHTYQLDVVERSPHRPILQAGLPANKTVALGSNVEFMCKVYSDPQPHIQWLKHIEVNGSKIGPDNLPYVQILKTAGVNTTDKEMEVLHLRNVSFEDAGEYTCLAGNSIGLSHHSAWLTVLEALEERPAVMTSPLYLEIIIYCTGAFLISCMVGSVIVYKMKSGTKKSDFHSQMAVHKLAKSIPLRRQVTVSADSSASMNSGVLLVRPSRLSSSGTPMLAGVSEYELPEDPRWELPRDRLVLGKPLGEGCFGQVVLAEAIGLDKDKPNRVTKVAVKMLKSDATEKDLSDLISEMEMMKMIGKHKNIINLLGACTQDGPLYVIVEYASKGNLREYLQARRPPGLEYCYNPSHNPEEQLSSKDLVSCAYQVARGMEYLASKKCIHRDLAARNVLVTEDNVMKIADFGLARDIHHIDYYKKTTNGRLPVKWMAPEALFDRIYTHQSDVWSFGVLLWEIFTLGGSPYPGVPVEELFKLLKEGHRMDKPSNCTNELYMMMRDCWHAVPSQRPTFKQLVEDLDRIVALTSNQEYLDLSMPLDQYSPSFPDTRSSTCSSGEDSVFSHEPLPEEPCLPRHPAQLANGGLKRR
Sequence of EphA7(h) (Q15375 whole entry): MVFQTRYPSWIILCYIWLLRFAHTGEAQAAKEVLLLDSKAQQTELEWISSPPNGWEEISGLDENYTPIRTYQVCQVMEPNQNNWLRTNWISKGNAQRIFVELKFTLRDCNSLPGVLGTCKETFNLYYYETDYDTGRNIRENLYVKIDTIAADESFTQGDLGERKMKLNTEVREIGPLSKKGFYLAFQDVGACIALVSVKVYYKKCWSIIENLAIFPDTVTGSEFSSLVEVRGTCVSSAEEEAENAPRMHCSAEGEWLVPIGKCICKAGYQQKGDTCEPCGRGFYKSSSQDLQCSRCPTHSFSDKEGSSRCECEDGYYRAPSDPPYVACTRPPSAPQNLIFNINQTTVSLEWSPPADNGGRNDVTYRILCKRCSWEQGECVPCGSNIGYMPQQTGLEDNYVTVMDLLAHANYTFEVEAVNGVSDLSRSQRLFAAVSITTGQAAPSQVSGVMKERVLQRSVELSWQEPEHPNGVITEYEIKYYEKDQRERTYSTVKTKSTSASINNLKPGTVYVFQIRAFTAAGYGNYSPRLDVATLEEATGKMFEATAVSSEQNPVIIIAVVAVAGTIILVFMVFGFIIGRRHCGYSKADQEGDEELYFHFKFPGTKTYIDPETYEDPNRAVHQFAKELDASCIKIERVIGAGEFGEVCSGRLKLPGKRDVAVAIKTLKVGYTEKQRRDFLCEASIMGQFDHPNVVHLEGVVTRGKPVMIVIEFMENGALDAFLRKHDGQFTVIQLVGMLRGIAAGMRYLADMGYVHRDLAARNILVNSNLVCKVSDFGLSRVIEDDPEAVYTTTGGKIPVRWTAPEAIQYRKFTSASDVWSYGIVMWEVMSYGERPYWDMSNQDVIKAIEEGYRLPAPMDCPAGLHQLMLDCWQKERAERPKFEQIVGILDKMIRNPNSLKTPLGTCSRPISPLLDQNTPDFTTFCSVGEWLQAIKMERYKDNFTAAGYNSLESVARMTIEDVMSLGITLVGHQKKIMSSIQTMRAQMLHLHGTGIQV
T8 sequence (Q9BZL6 whole entry): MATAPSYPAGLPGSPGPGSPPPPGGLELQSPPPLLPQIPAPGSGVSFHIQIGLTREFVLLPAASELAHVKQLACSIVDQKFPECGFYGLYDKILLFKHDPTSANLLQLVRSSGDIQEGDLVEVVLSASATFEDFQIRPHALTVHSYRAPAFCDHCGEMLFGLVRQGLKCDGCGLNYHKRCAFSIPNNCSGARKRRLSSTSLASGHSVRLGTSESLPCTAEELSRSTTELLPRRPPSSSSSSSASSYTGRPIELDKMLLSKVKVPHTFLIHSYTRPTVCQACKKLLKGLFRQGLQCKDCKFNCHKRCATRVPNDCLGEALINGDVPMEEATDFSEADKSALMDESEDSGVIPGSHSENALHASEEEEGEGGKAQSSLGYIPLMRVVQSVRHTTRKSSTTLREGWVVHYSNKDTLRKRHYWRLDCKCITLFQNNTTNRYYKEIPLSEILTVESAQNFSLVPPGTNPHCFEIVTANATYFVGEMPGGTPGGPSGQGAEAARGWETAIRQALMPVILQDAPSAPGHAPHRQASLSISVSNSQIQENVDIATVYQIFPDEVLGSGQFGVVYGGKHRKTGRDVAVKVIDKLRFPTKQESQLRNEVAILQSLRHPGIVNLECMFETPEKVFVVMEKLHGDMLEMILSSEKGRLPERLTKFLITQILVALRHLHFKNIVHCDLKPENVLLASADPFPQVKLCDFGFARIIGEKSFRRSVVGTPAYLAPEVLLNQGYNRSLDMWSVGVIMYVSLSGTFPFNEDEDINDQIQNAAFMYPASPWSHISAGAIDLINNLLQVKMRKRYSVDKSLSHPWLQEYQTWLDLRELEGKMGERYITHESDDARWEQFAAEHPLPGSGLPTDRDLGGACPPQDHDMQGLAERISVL
Sequence of PIK3CB (P42338 whole entry): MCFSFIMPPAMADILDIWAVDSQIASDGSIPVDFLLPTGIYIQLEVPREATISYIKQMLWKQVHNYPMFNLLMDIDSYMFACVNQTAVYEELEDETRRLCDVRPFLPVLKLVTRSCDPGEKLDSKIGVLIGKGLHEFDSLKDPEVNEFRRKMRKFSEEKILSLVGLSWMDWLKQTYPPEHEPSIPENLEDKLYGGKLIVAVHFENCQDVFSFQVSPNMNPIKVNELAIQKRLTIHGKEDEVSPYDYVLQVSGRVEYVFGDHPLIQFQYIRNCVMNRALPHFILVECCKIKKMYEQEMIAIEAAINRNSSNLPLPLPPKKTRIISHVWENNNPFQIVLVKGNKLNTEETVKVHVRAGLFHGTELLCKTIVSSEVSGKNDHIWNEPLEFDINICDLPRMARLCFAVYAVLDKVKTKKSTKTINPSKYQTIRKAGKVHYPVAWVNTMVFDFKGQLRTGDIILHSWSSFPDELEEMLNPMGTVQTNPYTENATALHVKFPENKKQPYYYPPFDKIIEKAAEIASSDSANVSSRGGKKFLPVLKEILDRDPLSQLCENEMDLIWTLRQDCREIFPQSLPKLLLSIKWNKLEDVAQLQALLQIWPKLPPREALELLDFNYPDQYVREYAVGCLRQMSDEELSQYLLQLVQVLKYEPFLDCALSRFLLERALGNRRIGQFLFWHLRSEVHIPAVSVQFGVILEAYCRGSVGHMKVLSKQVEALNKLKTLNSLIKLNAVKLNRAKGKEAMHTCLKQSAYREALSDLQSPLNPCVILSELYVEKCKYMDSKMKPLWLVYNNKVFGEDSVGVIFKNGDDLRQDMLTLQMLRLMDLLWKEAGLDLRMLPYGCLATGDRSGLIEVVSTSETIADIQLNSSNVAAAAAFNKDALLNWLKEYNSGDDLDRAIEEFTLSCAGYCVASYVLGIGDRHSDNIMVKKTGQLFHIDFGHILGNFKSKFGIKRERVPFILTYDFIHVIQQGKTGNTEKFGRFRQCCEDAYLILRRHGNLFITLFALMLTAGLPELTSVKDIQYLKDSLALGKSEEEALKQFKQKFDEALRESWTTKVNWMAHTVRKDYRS
T5 sequence (Q02750 whole entry): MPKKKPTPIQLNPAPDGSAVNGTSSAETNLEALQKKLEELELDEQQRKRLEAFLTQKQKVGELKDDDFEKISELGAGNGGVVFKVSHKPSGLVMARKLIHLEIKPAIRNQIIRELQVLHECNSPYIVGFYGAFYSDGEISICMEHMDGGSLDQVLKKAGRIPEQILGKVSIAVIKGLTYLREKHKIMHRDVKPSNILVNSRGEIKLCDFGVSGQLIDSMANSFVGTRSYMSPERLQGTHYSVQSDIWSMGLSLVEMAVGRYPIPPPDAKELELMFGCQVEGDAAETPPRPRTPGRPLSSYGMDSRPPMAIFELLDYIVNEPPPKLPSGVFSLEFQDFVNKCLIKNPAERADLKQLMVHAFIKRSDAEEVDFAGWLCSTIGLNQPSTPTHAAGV

SMILES: CC[C@@H](N)CNc1ccnc(-c2cc(-c3cnn(C)c3)ccc2O)n1 [CRT0066101]
- inhibition at 1 µM (cKit(D816H)(h)): 51%
- inhibition at 1 µM (CDK1/cyclinB(h)): 63%
- inhibition at 1 µM (ROCK-I(h)): 4%
- inhibition at 1 µM (PIK3CG / p85 (h)): -1%
- inhibition at 1 µM (EGFR(L858R)(h)): -1%
- inhibition at 1 µM (Flt3(D835Y)(h)): 80%
- inhibition at 1 µM (PKCα(h)): 4%
- inhibition at 1 µM (EGFR(T790M)(h)): -2%
- inhibition at 1 µM (MEK1(h)): 9%
- inhibition at 1 µM (FGFR1(h)): -30%
- inhibition at 1 µM (EphB4(h)): 25%
- inhibition at 1 µM (PKCγ(h)): 7%
- inhibition at 1 µM (EphA7(h)): -9%
- inhibition at 1 µM (SPHK2): 20%
- inhibition at 1 µM (ZAP-70(h)): -19%
- inhibition at 1 µM (PKD2(h)): 96%
- inhibition at 1 µM (PIK3CB): -9%
